Measured values as given in US9663454B2, “3-aryl propiolonitrile compounds for thiol labeling” (Universite de Strasbourg, priority 2013, dated 2017).
Each block holds one compound with its values, some of them ahead of it.

What was measured:
[1] = Stability of probes A and B in human plasma (fluorescence over time); format: in vitro ADME; conditions: same concentration of A and B, FIG. 1
From the text: FIG. 1: Evolution of intensity of fluorescence over time obtained in human plasma for the same concentration of compounds A and B.
The stability of compounds A (according to the invention) and B (reference compound) below was studied in different biological conditions.

BNL CL.2 cells = experiment: Stability of probes A and B in cellulo (cytometry, microscopy); format: cell-based, mouse; conditions: 1 μM, 2, 6 and 24 hours, FIG. 2
Experimental: FIG. 2a-2c: a) Evolution of intensity of fluorescence over time obtained in cellulo for the same concentration of compounds A and B. • b) Intensity ratio compound B/compound A at different times in cellulo. • c) Microscope pictures of cells treated with compounds A and B, superimposition of TAMRA and Hoechst labeling. White spots around nucleus correspond to hydrolyzed probe. A—arylpropiolonitrile probe, B—maleimide probe.
Normal liver BNL CL.2 cells from mouse were grown in Dulbecco's MEM medium with 1 g/l glucose (Eurobio, Les Ulis, France) supplemented with 10% fetal bovine serum (Perbio, Brebieres, France), 2 mM L-Glutamine, 100 U/mL penicillin, 100 μg/mL streptomycin (Eurobio). Cells were maintained in a 5% CO2 humidified atmosphere at 37° C.
The required amounts of probes A and B were diluted up to 300 μl in MEM complete medium to give final concentration of 1 μM and then added onto the cells. A 5 μg/ml of Hoechst 118 solution was used as a nuclear marker.
The day before experiment, BNL CL.2 cells were seeded in 96-plates (Greiner Bio One, Frickenhausen, Germany) at 2.0×10^4 cells/well in Dulbecco's MEM complete medium. […] After washing with PBS (Eurobio), 5 min incubation with 40 μl trypsine, and addition of 160 μl of PBS EDTA 5 mM, cells were analyzed by flow cytometry on a PCA-96 Guava cytometer (Guava Technologies Merck Millipore, Billerica, Mass., USA) with a green laser.

[2] = Selectivity screening of electrophiles on amino acid benzylamides, HPLC; conditions: in 1 hour in PBS (1×, pH 7.6) in presence of the electrophile, 1 mM reagents
Experimental: (§1) Screening for selectivity was done on benzylamides of non-protected amino acids. 100 mM stock solutions of benzylamides of amino acids (in form of TFA salts) and electrophiles (phenylpropiolonitrile and phenylmaleimide) were prepared in DMSO and stored at −20° C. A 100 mM stock solution of benzamide (used as an internal standard) was prepared in distilled water and stocked at −20° C. Analyses of reaction mixtures were conducted with Shimadzu LC with SunFire™ C18 5 μM 4.6×150 mm column (Waters). HPLC parameters were as follows: flow rate 1 mL/min, gradient from 5 to 95% of mobile phase B from 0 to 20 min, followed by 5 min at 95% of mobile phase and post time of 5 min. Mobile phase A was 0.05% TFA in water (mQ) (v/v), and mobile phase B was acetonitrile (HPLC grade). Data were analyzed using Shimadzu analysis software. Signals were normalized according to the area of the peak of the internal standard (benzamide). Areas under the peaks of the amino acid benzylamides were used to calculate their conversion during reaction.
10 μL of the stock solution of amino acid benzamide and 2.5 μL of the stock solution of benzamide were added to a vial containing 977.5 μL of PBS (1×, pH 7.6). The solution was stirred and 10 μL of the stock solution of electrophile were added to give 1 mM final concentrations of reagents and 0.25 mM concentration of benzamide. Aliquots of the reaction mixture (50 μL) were analyzed by HPLC for 1 hour of hydrolysis (injections at 0, 30 and 60 min). Areas under the peaks of the starting materials and hydrolysis products were normalized according to the area of peak of the internal standard. In case of phenylpropiolonitrile, none of amino acid models gave more than 1.6% conversion (see table 3 below). […] Masses of corresponding adducts were detected by mass spectrometry (ESI-LCMS) in some cases (shown in bold, Table 4).

[3] = Selectivity screening of electrophiles, whole panel of amino acid models; conditions: 1 hour, PBS (1×, pH 7.6), 1 mM reagents
Experimental: as §1, with “Areas under the peaks of the amino acid benzylamides were used to calculate their conversion during reaction.” left out
10 μL of the stock solution of amino acid benzamide and 2.5 μL of the stock solution of benzamide were added to a vial containing 977.5 μL of PBS (1×, pH 7.6). […] Aliquots of the reaction mixture (50 μL) were analyzed by HPLC for 1 hour of hydrolysis (injections at 0, 30 and 60 min). […] Masses of corresponding adducts were detected by mass spectrometry (ESI-LCMS) in some cases (shown in bold, Table 4).

[4] = Hydrolytic stability in PBS, HPLC monitoring; format: physicochemical; conditions: PBS (1×, pH 7.6), 1 mM, 25° C.
Experimental: FIG. 3a-3b: HPLC monitoring of the hydrolysis of phenylmaleimide (2) in PBS (1×, pH 7.6) at 1 mM concentration at 25° C.; the peaks correspond, from the earliest to the latest, to
[drawing 5] conversion was monitored by disappearance of the starting material (a). Pseudo first order rate constant for the reaction was determined by plotting the ln([phenylmaleimide]) versus time and analyzing by linear regression. The constant corresponds to the absolute value of determined slope (b).
FIG. 4: HPLC monitoring of hydrolytic stability of N-(4-(cyanoethynyl)phenyl)acetamide (pNHAc-APN, 11) in PBS (1×, pH 7.6) at 1 mM concentration at 25° C. Conversion was monitored by disappearance of the starting material; the peaks correspond, from the earliest to the latest, to
To a vial containing 980 μL of PBS (1×, pH 7.6), were subsequently added 10 μL of a stock solution of benzamide and 10 μL of a stock solution of electrophile (phenylmaleimide 1 or
[drawing 112] 11) to give final concentration of 1 mM (both internal standard and electrophile). Aliquots of the reaction mixture (50 μL) were analyzed by HPLC for 5 hours of hydrolysis (injection every 30 min). Areas under the peaks of the starting materials and hydrolysis products were normalized according to the area of the peak of the internal standard.

SMILES: COc1cc(/N=N/c2ccc([N+](=O)[O-])cc2)c(OC)cc1/N=N/c1ccc(N(C)CCCC(=O)NCCSC(=CC#N)c2ccc(NC(=O)CCCNC(=O)c3ccc(-c4c5ccc(=[N+](C)C)cc-5oc5cc(N(C)C)ccc45)c(C(=O)[O-])c3)cc2)cc1 [A]
stability in human plasma (in words) [1]: far more stable than compound B in human plasma | stability in cellulo (in words) (BNL CL.2 cells): far more stable than compound B in cellulo

hydrolysis (in words) ([4]; up to 5 hours of monitoring): Noticeable hydrolysis
SMILES: O=C1C=CC(=O)N1c1ccccc1 [phenylmaleimide, reference compound]
Conversion of AlaNHBn (7c) [2]: 0.2% | Conversion of ArgNHBn (7k) [2]: 2.9% | Conversion of AspNHBn (7l) [2]: 1.3% | Conversion of CysNHBn (7a) [2]: 100% | Conversion of GlnNHBn (7i) [2]: 1.7% | Conversion of GlyNHBn (7b) [2]: 3.3% | Conversion of HisNHBn (7h) [2]: 8.5% | Conversion of MetNHBn (7f) [2]: 1.9% | Conversion of SerNHBn (7e) [2]: 2.8% | Conversion of TrpNHBn (7j) [2]: 1.0% | Conversion of TyrNHBn (7g) [2]: 2.4% | Conversion of ValNHBn (7d) [2]: 0.9% | highest conversion among the amino acid models other than cysteine [3]: up to 8.5% | kobs (pseudo first order rate constant of hydrolysis) [4]: 7e-05 s⁻¹
